What all share (experiment): inhibition of tumour cell growth, NCI panel, 48 h
Assay [1] has as its system HOP-92 NSCLC.
In assay [2] the test system is EKVX NSCLC.
The test system of assay [3] is SK-MEL-2 melanoma.
Assay [4] concerns HOP-62 NSCLC.
Assay [5] relates to MOLT-4 leukemia.
Assay [6] has as its system SNB-19 CNS.
The test system of assay [7] is SK-OV-3 ovarian.
Assay [8] deals with KM12 colon.
For assay [9], the system named is HCT-116 colon.
Assay [10] relates to SR leukemia.

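Assay format: 96-well plates, 48-hour exposure. The concentration for full growth arrest is given as TGI.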 Some results are limits rather than exact numbers.

The values below come from PubChem BioAssay (NCI).

For `COC(=O)c1ccccc1C1CN=NC12Cc1cc(C)ccc1C2=O` (configuration not stated), the TGI in assay [1], in assay [2], in assay [3], in [4], in [5] and in assay [6] was greater than 100 µM each time. The TGI in [7], in [8], in [9] and in [10] was greater than 100 µM throughout.
Consider `CCOC(=O)c1ccc(N=c2sc3ccccc3nc2Nc2ccc(C(=O)OCC)cc2)cc1`, for which the TGI in assay [1], in assay [2], in assay [3], in assay [4], in [5] and in assay [6] was greater than 100 µM throughout. For the same molecule, the TGI in assay [7], in assay [8], in [9] and in assay [10] was greater than 100 µM in each case.
For the molecule `O=C(O)CN1C(=O)C(Cc2ccc(O)cc2)N=C(c2cccc(O)c2)c2ccccc21` (configuration not stated), the TGI in assay [1], in assay [2], in assay [3], in [4], in assay [5] and in assay [6] was greater than 100 µM in each case. The TGI in assay [7], in assay [8], in assay [9] and in assay [10] was greater than 100 µM each time.
With `CCOC(=O)c1c(N2CCOCC2)[nH]c(=O)c(C(c2ccco2)c2c(O)c(C(=O)OCC)c(N3CCOCC3)[nH]c2=O)c1O`, the TGI in assay [1], in assay [2], in assay [3], in assay [4], in [5] and in [6] was greater than 100 µM throughout. For the same molecule, the TGI in [7], in assay [8], in assay [9] and in assay [10] was greater than 100 µM in each case.
Consider `O=C1C(Cl)=C(Nc2ccc(S(=O)(=O)Nc3ccccn3)cc2)C(=O)c2ccccc21`, for which the TGI worked out at 15.4 µM in [1]; 31.7 µM in assay [2]; 15.3 µM in [3]; 29.9 µM in assay [4]; 25.5 µM in assay [5]; 38.7 µM in [6]. The TGI worked out at 43 µM in assay [7], 32.4 µM in assay [8], 18.8 µM in assay [9] and 16.2 µM in assay [10].
As to `COc1ccc(C(=O)/C=C/c2cc(O)c(O)c(F)c2F)c(OC)c1`, the TGI in assay [1] is greater than 100 µM; in [2], greater than 100 µM; in [3], 33.6 µM; in [4], 92.7 µM; in assay [6], greater than 100 µM; in [7] it was 98.1 µM. Besides, the figures for the TGI in assay [8], in assay [9] and in assay [10] were 33.5 µM, 27.2 µM and 26.8 µM, respectively.
Turning to `Nc1onc2c1Cc1c(noc1N)-c1ccccc1-2`, the TGI in assay [1] is 94.6 µM; in [2] it was 66.1 µM; in [3], greater than 100 µM; in [4], greater than 100 µM; in assay [5], greater than 100 µM; in assay [6] it was greater than 100 µM. Besides, the TGI in assay [7], in assay [8], in assay [9] and in assay [10] was greater than 100 µM throughout.
Take `C=C(C)[C@@H]1CCC2=C[C@H](OC2=O)[C@@]2(C)C[C@@H]2C2=CC(C)=C(O2)[C@H]1O`: the TGI in assay [1], in [2], in assay [3], in assay [4], in [5] and in [6] was greater than 75 µM each time. The TGI in assay [7], in assay [8], in assay [9] and in assay [10] was greater than 75 µM in each case.
As for `O=C1C(c2c(O)[nH]c3ccc(Br)cc23)=Nc2ccccc21`, the TGI in assay [1] is 34.9 µM; in [2] it was 20.2 µM; in assay [3], 28.3 µM; in assay [4], 32.6 µM; in assay [5] it was greater than 100 µM; in assay [6] it was 28.1 µM. For the same molecule, the TGI in assay [7] was 40.9 µM; in [8] it was 50.5 µM; in [9] it was 6.47 µM; in [10], greater than 100 µM.
Turning to `Cc1ccccc1S(=O)(=O)Nn1cnc2ccc(S(=O)(=O)Nc3ccc(Cl)cc3)cc2c1=O`, the TGI in [1], in [2], in assay [3], in assay [4], in assay [5] and in [6] was greater than 100 µM each time. Besides, the TGI in assay [7], in assay [8], in assay [9] and in assay [10] was greater than 100 µM in each case.
On to `O=C1CSC(c2cccc([N+](=O)[O-])c2)N1c1ccc(-n2c(-c3ccccc3)nc3ccccc3c2=O)cc1` (configuration not stated), for which the TGI in assay [1], in [2], in assay [3], in assay [4], in [5] and in assay [6] was greater than 100 µM throughout. The TGI in [7], in [8], in [9] and in assay [10] was greater than 100 µM throughout.
`NC(N)=Nc1ccc(CC(N)C(=O)O)cc1` (configuration not stated): the TGI in assay [1], in [2], in assay [3], in assay [4], in assay [5] and in assay [7] was greater than 12.5 µM each time. In addition, the TGI in assay [8], in assay [9] and in [10] was greater than 12.5 µM throughout.
With `O=C1CC(c2ccccc2)n2cccc21` (configuration not stated), the TGI in assay [1], in [2], in assay [3], in assay [4], in assay [6] and in assay [7] was greater than 100 µM throughout. Also, the TGI in assay [8], in [9] and in [10] was greater than 100 µM each time.
